# Measurements: patent US9198433B2, “Substituted benzene fungicides” (E I DU PONT DE NEMOURS AND COMPANY, priority 2007, dated 2015)
# Marks after values point to notes of the source that are not given here.
# What was measured:
# Assay type in all cases: in vivo
# [1] = tested on: Septoria nodorum; assay: Test C: wheat glume blotch, preventive spray on wheat seedlings, disease rating
# Text: (§1) The test compounds were first dissolved in acetone in an amount equal to 3% of the final volume and then suspended at the desired concentration (in ppm) in acetone and purified water (50/50 mix) containing 250 ppm of the surfactant Trem® 014 (polyhydric alcohol esters). The resulting test suspensions were then used in Tests A-L. Spraying a 200 ppm test suspension to the point of run-off on the test plants was the equivalent of an application rate of 500 g/ha. The test suspension was sprayed to the point of run-off on wheat seedlings. […] A dash (-) indicates no test results. All results are for 200 ppm except where followed by an “*”, which indicates 40 ppm or “**”, which indicates 50 ppm.
# [2] = tested on: Septoria tritici; assay: Test D: wheat leaf blotch, preventive spray on wheat seedlings, disease rating
# Text: The test compounds were first dissolved in acetone in an amount equal to 3% of the final volume and then suspended at the desired concentration (in ppm) in acetone and purified water (50/50 mix) containing 250 ppm of the surfactant Trem® 014 (polyhydric alcohol esters). The resulting test suspensions were then used in Tests A-L. Spraying a 200 ppm test suspension to the point of run-off on the test plants was the equivalent of an application rate of 500 g/ha. The test suspension was sprayed to the point of run-off on wheat seedlings. The following day the seedlings were inoculated with a spore suspension of Septoria tritici (the causal agent of wheat leaf blotch) and incubated in a saturated atmosphere at 24° C. for 48 h, and then moved to a growth chamber at 20° C. for 19 days, after which time disease ratings were made. […] A dash (-) indicates no test results. All results are for 200 ppm except where followed by an “*”, which indicates 40 ppm or “**”, which indicates 50 ppm.
# [3] = tested on: Erysiphe graminis f. sp. tritici; assay: Test A: wheat powdery mildew, preventive spray on wheat seedlings, disease rating
# Text: as §1
# [4] = tested on: Alternaria solani; assay: Test H: tomato early blight, preventive spray on tomato seedlings, disease rating
# Text: (§2) The test compounds were first dissolved in acetone in an amount equal to 3% of the final volume and then suspended at the desired concentration (in ppm) in acetone and purified water (50/50 mix) containing 250 ppm of the surfactant Trem® 014 (polyhydric alcohol esters). The resulting test suspensions were then used in Tests A-L. Spraying a 200 ppm test suspension to the point of run-off on the test plants was the equivalent of an application rate of 500 g/ha. The test suspension was sprayed to the point of run-off on tomato seedlings. […] A dash (-) indicates no test results. All results are for 200 ppm except where followed by an “*”, which indicates 40 ppm or “**”, which indicates 50 ppm.
# [5] = tested on: Botrytis cinerea; assay: Test F: tomato Botrytis, preventive spray on tomato seedlings, disease rating
# Text: as §2
# [6] = tested on: Puccinia recondita f. sp. tritici; assay: Test B: wheat leaf rust, preventive spray on wheat seedlings, disease rating
# Text: as §1
# [7] = 200 ppm, 100 = 100% disease control, 0 = no control relative to controls
# [8] = 40 ppm (*), 100 = 100% disease control, 0 = no control relative to controls
Compound,"Percentage Disease Control, Test C ([1]; 40 ppm (*))","Percentage Disease Control, Test D ([2]; 40 ppm (*))","Percentage Disease Control, Test A ([3]; 40 ppm (*))","Percentage Disease Control, Test H ([4]; 40 ppm (*))","Percentage Disease Control, Test F ([5]; 200 ppm) [%]","Percentage Disease Control, Test B ([6]; 40 ppm (*))","Percentage Disease Control, Test F ([5]; 40 ppm (*))",other results
COC(=O)NCc1cc(-n2ccc(-c3ccc(Br)cc3)n2)ccc1Cl [Cmpd 124],100* %,100* %,100* %,99* %,0,100* %,,
COC(=O)NCc1cc(-c2ccn(-c3ccc(C(=O)OC)cc3)n2)ccc1Cl [Cmpd 108],,98* %,,,0,,,"Percentage Disease Control, Test C ([1]; 200 ppm): 95%; Percentage Disease Control, Test A ([3]; 200 ppm): 0%; Percentage Disease Control, Test H ([4]; 200 ppm): 28%; Percentage Disease Control, Test B ([6]; 200 ppm): 86%"
COC(=O)NCc1cc(-c2ccn(-c3ccc(OC)cc3)n2)ccc1Cl [Cmpd 106],100* %,100* %,98* %,92* %,0,100* %,,
COC(=O)NCc1cc(-c2ccnc(Cl)n2)ccc1Cl [Cmpd 130],,,,,,,,"Percentage Disease Control, Test C [1, 7]: 92%; Percentage Disease Control, Test D [2, 7]: 96%; Percentage Disease Control, Test A [3, 7]: 80%; Percentage Disease Control, Test H [4, 7]: 0%; Percentage Disease Control, Test F [5, 7]: 0%; Percentage Disease Control, Test B [6, 7]: 67%"
COC(=O)NCc1cc(-c2ccn(Cc3ccc(-c4ccccc4C#N)cc3)n2)ccc1Cl [Cmpd 55],92* %,95* %,88* %,16* %,,88* %,0* %,
COC(=O)NCc1cc(-n2ccc(-c3cccc(Cl)c3)n2)ccc1Cl [Cmpd 123],100* %,99* %,98* %,,63,99* %,,"Percentage Disease Control, Test H ([4]; 200 ppm): 87%"
COC(=O)NCc1cc(-c2ccn(Cc3ccccc3)n2)ccc1Cl [Cmpd 57],87* %,100* %,97* %,96* %,,100* %,0* %,
COC(=O)NCc1cc(-c2ccn(Cc3ccccc3OC(F)(F)F)n2)ccc1Cl [Cmpd 76],99* %,100* %,99* %,0* %,,100* %,0* %,
COC(=O)NCc1cc(-c2ccnc(-c3ccc(C)cc3)n2)ccc1Cl [Cmpd 132],,,,,,,,"Percentage Disease Control, Test C [1, 8]: 98* %; Percentage Disease Control, Test D [2, 8]: 100* %; Percentage Disease Control, Test A [3, 7]: 80%; Percentage Disease Control, Test H [4, 7]: 0%; Percentage Disease Control, Test F [5, 7]: 0%; Percentage Disease Control, Test B [6, 8]: 95* %"
COC(=O)NCc1cc(-c2ccn(-c3ccc(C)cc3)n2)ccc1Cl [Cmpd 109],100* %,99* %,98* %,100* %,,100* %,92* %,
COC(=O)NCc1cc(-c2ccn(-c3cccc(Br)c3)n2)ccc1Cl [Cmpd 112],100* %,100* %,,,0,99* %,,"Percentage Disease Control, Test A ([3]; 200 ppm): 88%; Percentage Disease Control, Test H ([4]; 200 ppm): 93%"
COC(=O)NCc1cc(-c2cc(C(F)(F)F)nn2C)ccc1Cl [Cmpd 141],,,,,,,,"Percentage Disease Control, Test C [1, 7]: 82%; Percentage Disease Control, Test D [2, 7]: 98%; Percentage Disease Control, Test A [3, 7]: 96%; Percentage Disease Control, Test H [4, 7]: 0%; Percentage Disease Control, Test F [5, 7]: 0%; Percentage Disease Control, Test B [6, 7]: 89%"
COC(=O)NCc1cc(-c2ccn(-c3ccc(F)c(F)c3)n2)ccc1Cl [Cmpd 118],,,,,40,,,"Percentage Disease Control, Test C ([1]; 200 ppm): 100%; Percentage Disease Control, Test D ([2]; 200 ppm): 100%; Percentage Disease Control, Test A ([3]; 200 ppm): 100%; Percentage Disease Control, Test H ([4]; 200 ppm): 99%; Percentage Disease Control, Test B ([6]; 200 ppm): 100%"
COC(=O)NCc1cc(-c2cnn(Cc3ccc(C)cc3)n2)ccc1Cl [Compound 146],,,,,,,,"Percentage Disease Control, Test C [1, 7]: 99%; Percentage Disease Control, Test D [2, 7]: 93%; Percentage Disease Control, Test A [3, 7]: 52%; Percentage Disease Control, Test H [4, 7]: 22%; Percentage Disease Control, Test F [5, 7]: 0%; Percentage Disease Control, Test B [6, 7]: 93%"
COC(=O)NCc1cc(-c2ccn(-c3nc(C)ns3)n2)ccc1Cl [Cmpd 105],100* %,99* %,,90* %,0,100* %,,"Percentage Disease Control, Test A ([3]; 200 ppm): 51%"
COC(=O)NCc1cc(-c2ccn(-c3ccc(C(C)=O)cc3)n2)ccc1Cl [Cmpd 150],,,,,,,,"Percentage Disease Control, Test C [1, 7]: 100%; Percentage Disease Control, Test D [2, 7]: 99%; Percentage Disease Control, Test A [3, 7]: 71%; Percentage Disease Control, Test H [4, 7]: 92%; Percentage Disease Control, Test F [5, 7]: 0%; Percentage Disease Control, Test B [6, 7]: 98%"
COC(=O)NCc1cc(-c2ccn(CCc3ccccc3)n2)ccc1Cl [Cmpd 58],100* %,99* %,98* %,89* %,,100* %,0* %,
COC(=O)NCc1cc(-c2ccn(CCC(=O)c3ccc(Cl)cc3)n2)ccc1Cl [Cmpd 56],97* %,90* %,89* %,92* %,,97* %,0* %,
COC(=O)NCc1cc(-c2cnn(Cc3ccccc3)c2)ccc1Cl [Cmpd 128],,,,,,,,"Percentage Disease Control, Test C [1, 7]: 82%; Percentage Disease Control, Test D [2, 8]: 96* %; Percentage Disease Control, Test A [3, 7]: 29%; Percentage Disease Control, Test H [4, 7]: 0%; Percentage Disease Control, Test F [5, 7]: 0%; Percentage Disease Control, Test B [6, 7]: 98%"
COC(=O)NCc1cc(-c2ccn(-c3cccc(C#N)c3)n2)ccc1Cl [Cmpd 113],,,,,24,,,"Percentage Disease Control, Test C ([1]; 200 ppm): 100%; Percentage Disease Control, Test D ([2]; 200 ppm): 100%; Percentage Disease Control, Test A ([3]; 200 ppm): 92%; Percentage Disease Control, Test H ([4]; 200 ppm): 0%; Percentage Disease Control, Test B ([6]; 200 ppm): 99%"
COC(=O)NCc1cc(-c2ccn(-c3cccc(OC)c3)n2)ccc1Cl [Cmpd 107],100* %,99* %,100* %,99* %,89,100* %,,
COC(=O)NCc1cc(-c2ccn(Cc3ccc(C)cc3)n2)ccc1Cl [Cmpd 72],100* %,100* %,99* %,94* %,,99* %,97* %,
COC(=O)NCc1cc(-c2ccn(-c3cccc(C(F)(F)F)n3)n2)ccc1Cl [Cmpd 69],98* %,98* %,97* %,,0,92* %,,"Percentage Disease Control, Test H ([4]; 200 ppm): 32%"
COC(=O)NCc1cc(-c2ccn(-c3cccc(C)c3)n2)ccc1Cl [Cmpd 81],100* %,99* %,85* %,97* %,,99* %,81* %,
COC(=O)NCc1cc(C(C)=NOC[Si](C)(C)c2ccc(F)cc2)ccc1Cl [Compound 16],100* %,100* %,99* %,95* %,67,100* %,,
